Measurements: patent US20230407243A1, “GENETIC PLATFORM TO INVESTIGATE THE FUNCTIONS OF BACTERIAL DRUG EFFLUX PUMPS” (priority 2022, published 2023)
Read-outs that look alike come from different tables or passages of the source.

How the values were obtained:
Type in all cases: cell-based, Escherichia coli
E. coli ΔtolC = assay: microbe, parasite or virus in culture
How it was run: (§1)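 Steps: LB overnight culture at 37 °C; resuspension in PBS to OD600 ~1.0; 1/2000 dilution in MHB II; addition to 2-fold serial compound dilutions (duplicate); 18 h shaking incubation at 37 °C; OD600 read, with pre-read subtracted.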

[1] = system: wild-type E. coli K-12 str. BW25113; assay: microbe, parasite or virus in culture; details: Escherichia coli, BW25113, technical duplicate
How it was run: as §1

E. coli EKO-35 = assay: microbe, parasite or virus in culture; details: for MIC: Escherichia coli, EKO35, technical duplicate
How it was run: as §1

EKO-35 araC::mdtBC = assay: MIC susceptibility profiling, efflux platform
How it was run: as §1

EKO-35 araC::acrEF = assay: MIC susceptibility profiling, efflux platform
How it was run: as §1

EKO-35 araC::acrBD408A = assay: MIC susceptibility profiling, efflux platform
How it was run: as §1

EKO-35-Pore = assay: MIC susceptibility profiling, porinated strain; details: for MIC: Escherichia coli, technical duplicate
How it was run: (§2)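 Strains carry the fhuA ΔC/Δ4L pore integrated between glmS and pstS under a constitutive promoter, with pore activity checked by vancomycin susceptibility. Overnight LB cultures were adjusted in PBS pH 7.4 to OD600 ~1.0 and diluted 1/2000 into MHB II. 2-fold compound titrations were read by OD600 after 18 h at 37 °C.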

wild-type (WT) K-12-Pore = assay: microbe, parasite or virus in culture; details: Escherichia coli, technical duplicate
How it was run: as §2

ΔtolC-Pore = assay: microbe, parasite or virus in culture
How it was run: as §2

EKO-35 araC::mdtEF Pore = assay: MIC susceptibility profiling, porinated efflux platform
How it was run: as §2

EKO-35 araC::emrAB Pore = assay: as above; details: EKO-35 araC::emrAB Pore compared to EKO-35-Pore
How it was run: as §2

EKO-35 araC::acrB Pore = assay: as above; details: EKO-35 araC::acr-B Pore compared to EKO-35-Pore
How it was run: as §2

EKO-35 araC::macAB Pore = assay: as above
How it was run: as §2

EKO-35 araC::mdtBC Pore = assay: as above
How it was run: as §2

[2] = system: EKO-35 araC::acrBD408A Pore; assay: as above
How it was run: as §2

EKO-35 araC::emrKY Pore = assay: as above; details: EKO-35 araC::emrKY Pore compared to EKO-35-Pore
How it was run: as §2

EKO-35 araC::mexCD Pore = assay: as above
How it was run: as §2

EKO-35 araC::acrD Pore = assay: as above; details: EKO-35 araC::acrD Pore compared to EKO-35-Pore
How it was run: as §2

EKO-35 araC::acrEF Pore = assay: as above; details: EKO-35 araC::acrEF Pore compared to EKO-35-Pore
How it was run: as §2

CN[C@H](CC(C)C)C(=O)N[C@H]1C(=O)N[C@@H](CC(N)=O)C(=O)N[C@H]2C(=O)N[C@H]3C(=O)N[C@H](C(=O)N[C@H](C(=O)O)c4cc(O)cc(O)c4-c4cc3ccc4O)[C@H](O)c3ccc(c(Cl)c3)Oc3cc2cc(c3O[C@@H]2O[C@H](CO)[C@@H](O)[C@H](O)[C@H]2O[C@H]2C[C@](C)(N)[C@H](O)[C@H](C)O2)Oc2ccc(cc2Cl)[C@H]1O [vancomycin]
MIC (E. coli ΔtolC; Escherichia coli, 18 h, read-out: Minimum Inhibitory Concentration, ΔtolC): 200 µg/mL | Minimum inhibitory concentration (MIC), ΔtolC (E. coli ΔtolC; Table 10, without pore, technical duplicate): 200 µg/mL | MIC ([1]; Table 10, without pore, read-out: Minimum inhibitory concentration (MIC), K-12): 200 µg/mL | MIC ([1]; Table 13A, non-porinated, read-out: Minimum Inhibitory Concentration, K-12): 200 µg/mL | Fold change of MICs (E. coli EKO-35; EKO-35 compared to EKO-35 (reference)): 1 fold | MIC (E. coli EKO-35; Table 10, without pore, read-out: Minimum inhibitory concentration (MIC), EKO-35): 200 µg/mL | MIC (E. coli EKO-35; Table 13A, non-porinated, read-out: Minimum Inhibitory Concentration, EKO-35): 200 µg/mL | Fold change of MICs (EKO-35 araC::mdtBC; EKO-35 araC::mdtBC compared to EKO-35): 1 fold | MIC (EKO-35 araC::mdtBC; Escherichia coli, Table 13B, non-porinated, technical duplicate, read-out: Minimum Inhibitory Concentration, EKO-35 araC::mdtBC): 200 µg/mL | Fold change of MICs (EKO-35 araC::acrEF; EKO-35 araC::acrEF compared to EKO-35): 1 fold | MIC (EKO-35 araC::acrEF; Escherichia coli, Table 13A, non-porinated, technical duplicate, read-out: Minimum Inhibitory Concentration, EKO-35 araC::acrEF): 200 µg/mL | Fold change of MICs (EKO-35 araC::acrBD408A; EKO-35 araC::acrBD408A compared to EKO-35): 1 fold | MIC (EKO-35 araC::acrBD408A; Escherichia coli, Table 13B, non-porinated, technical duplicate, read-out: Minimum Inhibitory Concentration, EKO-35 araC::acrBD408A): 200 µg/mL | Fold changes of MICs (EKO-35-Pore; EKO-35-Pore compared to EKO-35-Pore (reference)): 1 fold | MIC (EKO-35-Pore; Table 10, with pore, read-out: Minimum inhibitory concentration (MIC), Pore EKO-35): 6.25 µg/mL | MIC (EKO-35-Pore; Table 14A, porinated, read-out: Minimum inhibitory concentration, EKO-35-Pore): 6.25 µg/mL | MIC (wild-type (WT) K-12-Pore; Table 10, with pore, read-out: Minimum inhibitory concentration (MIC), Pore K-12): 3.12 µg/mL | MIC (wild-type (WT) K-12-Pore; Table 14A, porinated, read-out: Minimum inhibitory concentration, K-12 (WT)-Pore): 3.12 µg/mL | MIC (ΔtolC-Pore; Escherichia coli, 18 h, read-out: Minimum inhibitory concentration, ΔtolC-Pore): 6.25 µg/mL | Minimum inhibitory concentration (MIC), Pore ΔtolC (ΔtolC-Pore; Table 10, with pore, technical duplicate): 6.25 µg/mL | Fold changes of MICs (EKO-35 araC::mdtEF Pore; EKO-35 araC::mdtEF Pore compared to EKO-35-Pore): 1 fold | MIC (EKO-35 araC::mdtEF Pore; Escherichia coli, Table 14A, porinated, technical duplicate, read-out: Minimum inhibitory concentration, EKO-35 araC::mdtEF Pore): 6.25 µg/mL | Fold changes of MICs (EKO-35 araC::emrAB Pore): 1 fold | Fold changes of MICs (EKO-35 araC::acrB Pore): 1 fold | Fold changes of MICs (EKO-35 araC::macAB Pore; EKO-35 araC::macAB Pore compared to EKO-35-Pore): 1 fold | MIC (EKO-35 araC::macAB Pore; Escherichia coli, EKO-35 araC::macAB Pore, technical duplicate, read-out: Minimum inhibitory concentration): 6.25 µg/mL | Fold changes of MICs (EKO-35 araC::mdtBC Pore; EKO-35 araC::mdtBC Pore compared to EKO-35-Pore): 0 fold | MIC (EKO-35 araC::mdtBC Pore; Escherichia coli, EKO-35 araC::mdtBC Pore, technical duplicate, read-out: Minimum inhibitory concentration): 1.56 µg/mL | Fold changes of MICs ([2]; EKO-35 araC::acrBD408A Pore compared to EKO-35-Pore): 1 fold | MIC ([2]; Escherichia coli, EKO-35 araC::acrBD408A Pore, technical duplicate, read-out: Minimum inhibitory concentration): 6.25 µg/mL | Fold changes of MICs (EKO-35 araC::emrKY Pore): 1 fold | Fold changes of MICs (EKO-35 araC::mexCD Pore; EKO-35 araC::mexCD Pore compared to EKO-35-Pore): 1 fold | MIC (EKO-35 araC::mexCD Pore; Escherichia coli, EKO-35 araC::mexCD Pore, technical duplicate, read-out: Minimum inhibitory concentration): 6.25 µg/mL | Fold changes of MICs (EKO-35 araC::acrD Pore): 1 fold | Fold changes of MICs (EKO-35 araC::acrEF Pore): 1 fold
